Test system: SW620 colorectal cancer cell line
Assay: Flow cytometry of EpCAM positive cells and cancer stem cell (CD44+CD133-) subpopulation after incubation with cytokines
Type: cell-based, human
Conditions: for % Gated, R4 (CD44FITC, CD133 PE) / % Total, R4 (CD44FITC, CD133 PE): population R4 & R14 & R2 & R1; for % Gated, R5 (CD44FITC, CD133 PE) / % Total, R5 (CD44FITC, CD133 PE): population R5 & R14 & R2 & R1; for % Gated, R6 (CD44FITC, CD133 PE) / % Total, R6 (CD44FITC, CD133 PE): population R6 & R14 & R2 & R1; for % Gated, R7 Cancer Stem Cell (CSC) (CD44+CD133-) / % Total, R7 Cancer Stem Cell (CSC) (CD44+CD133-): population R7 & R14 & R2 & R1; for % Gated, R8 (CD44FITC, EpCAMefluor710) / % Total, R8 (CD44FITC, EpCAMefluor710): population R8 & R14 & R2 & R1; for % Gated, R9 EpCAM positive Cells (CD44FITC, EpCAMefluor710) / % Total, R9 EpCAM positive Cells (CD44FITC, EpCAMefluor710): population R9 & R14 & R2 & R1; for % Gated, R10 EpCAM positive Cells (CD44FITC, EpCAMefluor710) / % Total, R10 EpCAM positive Cells (CD44FITC, EpCAMefluor710): population R10 & R14 & R2 & R1; for % Gated, R11 (CD44FITC, EpCAMefluor710) / % Total, R11 (CD44FITC, EpCAMefluor710): population R11 & R14 & R2 & R1
Procedure: This number returned to near baseline 21% at 48 hours. […] This change was transient, occurring within 24 hours and rapidly returning to baseline.
The data from the scatter plots of FIGS. 1A-1H, 2A-2H, and 3A-3H are reproduced below in Tables 1-3.
Based on the above data of potentiating the effectiveness of chemotherapy by exposing cancer cells to specific cytokines such as HGF and or Il-6 within a time limited fashion, the mechanism behind this ability to sensitize cancer cells may not simply be triggering cellular proliferation. Specific cytokine exposures can transiently cause a cancer cell population to differentiate away from a more stem cell enriched, mesenchymal phenotype towards a more differentiated, epithelial cell population more sensitive to the effects of anti-cancer therapies (see Tables 1-3).
In particular, exposure to a control population of SW620 colorectal cancer cell line to HGF at a concentration of 10 ng per ml for 24 hours caused the control putative stem cell population (CD44+/CD133−) to drop from 33% at baseline (see Table 1, R7 region, CD 44 positive/CD133 negative) to 1% (see Table 2, R7, region CD 44 positive/CD133 negative). This drop was transient, as exposure to the same cell line for 48 hours of HGF at 10 ng per ml transitioned the phenotypic distribution back towards a stem cell enriched phenotype with 23% putative stem cells (see Table 3, R7 region, CD 44 positive/CD133 negative).

IL6: Interleukin 6, cytokine
% Gated, R4 (CD44FITC, CD133 PE) (0 hour incubation): 48.6%
% Total, R4 (CD44FITC, CD133 PE) (0 hour incubation): 45.1%
% Gated, R5 (CD44FITC, CD133 PE) (0 hour incubation): 3.48%
% Total, R5 (CD44FITC, CD133 PE) (0 hour incubation): 3.23%
% Gated, R6 (CD44FITC, CD133 PE) (0 hour incubation): 13.9%
% Total, R6 (CD44FITC, CD133 PE) (0 hour incubation): 12.9%
% Gated, R7 Cancer Stem Cell (CSC) (CD44+CD133-) (0 hour incubation): 34.2%
% Total, R7 Cancer Stem Cell (CSC) (CD44+CD133-) (0 hour incubation): 31.7%
% Gated, R8 (CD44FITC, EpCAMefluor710) (0 hour incubation): 5.15%
% Total, R8 (CD44FITC, EpCAMefluor710) (0 hour incubation): 4.78%
% Gated, R9 EpCAM positive Cells (CD44FITC, EpCAMefluor710) (0 hour incubation): 53%
% Total, R9 EpCAM positive Cells (CD44FITC, EpCAMefluor710) (0 hour incubation): 49.2%
% Gated, R10 EpCAM positive Cells (CD44FITC, EpCAMefluor710) (0 hour incubation): 39%
% Total, R10 EpCAM positive Cells (CD44FITC, EpCAMefluor710) (0 hour incubation): 36.1%
% Gated, R11 (CD44FITC, EpCAMefluor710) (0 hour incubation): 2.42%
% Total, R11 (CD44FITC, EpCAMefluor710) (0 hour incubation): 2.24%
% Gated, R4 (CD44FITC, CD133 PE) (24 h incubation): 41.1%
% Total, R4 (CD44FITC, CD133 PE) (24 h incubation): 33.4%
% Gated, R5 (CD44FITC, CD133 PE) (24 h incubation): 7.69%
% Total, R5 (CD44FITC, CD133 PE) (24 h incubation): 6.27%
% Gated, R6 (CD44FITC, CD133 PE) (24 h incubation): 28.8%
% Total, R6 (CD44FITC, CD133 PE) (24 h incubation): 23.4%
% Gated, R7 Cancer Stem Cell (CSC) (CD44+CD133-) (24 h incubation): 22.3%
% Total, R7 Cancer Stem Cell (CSC) (CD44+CD133-) (24 h incubation): 18.1%
% Gated, R8 (CD44FITC, EpCAMefluor710) (24 h incubation): 5.35%
% Total, R8 (CD44FITC, EpCAMefluor710) (24 h incubation): 4.36%
% Gated, R9 EpCAM positive Cells (CD44FITC, EpCAMefluor710) (24 h incubation): 48.4%
% Total, R9 EpCAM positive Cells (CD44FITC, EpCAMefluor710) (24 h incubation): 39.4%
% Gated, R10 EpCAM positive Cells (CD44FITC, EpCAMefluor710) (24 h incubation): 45.2%
% Total, R10 EpCAM positive Cells (CD44FITC, EpCAMefluor710) (24 h incubation): 36.8%
% Gated, R11 (CD44FITC, EpCAMefluor710) (24 h incubation): 1.94%
% Total, R11 (CD44FITC, EpCAMefluor710) (24 h incubation): 1.58%
% Gated, R4 (CD44FITC, CD133 PE) (48 h incubation): 37.5%
% Total, R4 (CD44FITC, CD133 PE) (48 h incubation): 33.7%
% Gated, R5 (CD44FITC, CD133 PE) (48 h incubation): 7.38%
% Total, R5 (CD44FITC, CD133 PE) (48 h incubation): 6.64%
% Gated, R6 (CD44FITC, CD133 PE) (48 h incubation): 30.7%
% Total, R6 (CD44FITC, CD133 PE) (48 h incubation): 27.6%
% Gated, R7 Cancer Stem Cell (CSC) (CD44+CD133-) (48 h incubation): 25.1%
% Total, R7 Cancer Stem Cell (CSC) (CD44+CD133-) (48 h incubation): 22.6%
% Gated, R8 (CD44FITC, EpCAMefluor710) (48 h incubation): 26%
% Total, R8 (CD44FITC, EpCAMefluor710) (48 h incubation): 23.4%
% Gated, R9 EpCAM positive Cells (CD44FITC, EpCAMefluor710) (48 h incubation): 27.6%
% Total, R9 EpCAM positive Cells (CD44FITC, EpCAMefluor710) (48 h incubation): 24.8%
% Gated, R10 EpCAM positive Cells (CD44FITC, EpCAMefluor710) (48 h incubation): 26%
% Total, R10 EpCAM positive Cells (CD44FITC, EpCAMefluor710) (48 h incubation): 23.3%
% Gated, R11 (CD44FITC, EpCAMefluor710) (48 h incubation): 21.4%
% Total, R11 (CD44FITC, EpCAMefluor710) (48 h incubation): 19.3%

IL8: cytokine treatment IL8 in Tables 1-3
% Gated, R4 (CD44FITC, CD133 PE) (0 hour incubation): 48.9%
% Total, R4 (CD44FITC, CD133 PE) (0 hour incubation): 40.9%
% Gated, R5 (CD44FITC, CD133 PE) (0 hour incubation): 3.58%
% Total, R5 (CD44FITC, CD133 PE) (0 hour incubation): 2.99%
% Gated, R6 (CD44FITC, CD133 PE) (0 hour incubation): 14.3%
% Total, R6 (CD44FITC, CD133 PE) (0 hour incubation): 12%
% Gated, R7 Cancer Stem Cell (CSC) (CD44+CD133-) (0 hour incubation): 33.5%
% Total, R7 Cancer Stem Cell (CSC) (CD44+CD133-) (0 hour incubation): 28%
% Gated, R8 (CD44FITC, EpCAMefluor710) (0 hour incubation): 3.84%
% Total, R8 (CD44FITC, EpCAMefluor710) (0 hour incubation): 3.21%
% Gated, R9 EpCAM positive Cells (CD44FITC, EpCAMefluor710) (0 hour incubation): 55%
% Total, R9 EpCAM positive Cells (CD44FITC, EpCAMefluor710) (0 hour incubation): 46%
% Gated, R10 EpCAM positive Cells (CD44FITC, EpCAMefluor710) (0 hour incubation): 38.9%
% Total, R10 EpCAM positive Cells (CD44FITC, EpCAMefluor710) (0 hour incubation): 32.6%
% Gated, R11 (CD44FITC, EpCAMefluor710) (0 hour incubation): 1.92%
% Total, R11 (CD44FITC, EpCAMefluor710) (0 hour incubation): 1.6%
% Gated, R4 (CD44FITC, CD133 PE) (24 h incubation): 36.8%
% Total, R4 (CD44FITC, CD133 PE) (24 h incubation): 30%
% Gated, R5 (CD44FITC, CD133 PE) (24 h incubation): 7.29%
% Total, R5 (CD44FITC, CD133 PE) (24 h incubation): 5.93%
% Gated, R6 (CD44FITC, CD133 PE) (24 h incubation): 30.9%
% Total, R6 (CD44FITC, CD133 PE) (24 h incubation): 25.2%
% Gated, R7 Cancer Stem Cell (CSC) (CD44+CD133-) (24 h incubation): 24.5%
% Total, R7 Cancer Stem Cell (CSC) (CD44+CD133-) (24 h incubation): 19.9%
% Gated, R8 (CD44FITC, EpCAMefluor710) (24 h incubation): 1.98%
% Total, R8 (CD44FITC, EpCAMefluor710) (24 h incubation): 1.61%
% Gated, R9 EpCAM positive Cells (CD44FITC, EpCAMefluor710) (24 h incubation): 48.4%
% Total, R9 EpCAM positive Cells (CD44FITC, EpCAMefluor710) (24 h incubation): 39.4%
% Gated, R10 EpCAM positive Cells (CD44FITC, EpCAMefluor710) (24 h incubation): 50.1%
% Total, R10 EpCAM positive Cells (CD44FITC, EpCAMefluor710) (24 h incubation): 40.6%
% Gated, R11 (CD44FITC, EpCAMefluor710) (24 h incubation): 0.34%
% Total, R11 (CD44FITC, EpCAMefluor710) (24 h incubation): 0.27%
% Gated, R4 (CD44FITC, CD133 PE) (48 h incubation): 38.5%
% Total, R4 (CD44FITC, CD133 PE) (48 h incubation): 35.8%
% Gated, R5 (CD44FITC, CD133 PE) (48 h incubation): 6.8%
% Total, R5 (CD44FITC, CD133 PE) (48 h incubation): 6.32%
% Gated, R6 (CD44FITC, CD133 PE) (48 h incubation): 28.5%
% Total, R6 (CD44FITC, CD133 PE) (48 h incubation): 26.5%
% Gated, R7 Cancer Stem Cell (CSC) (CD44+CD133-) (48 h incubation): 26.8%
% Total, R7 Cancer Stem Cell (CSC) (CD44+CD133-) (48 h incubation): 24.9%
% Gated, R8 (CD44FITC, EpCAMefluor710) (48 h incubation): 23.1%
% Total, R8 (CD44FITC, EpCAMefluor710) (48 h incubation): 21.5%
% Gated, R9 EpCAM positive Cells (CD44FITC, EpCAMefluor710) (48 h incubation): 31%
% Total, R9 EpCAM positive Cells (CD44FITC, EpCAMefluor710) (48 h incubation): 28.8%
% Gated, R10 EpCAM positive Cells (CD44FITC, EpCAMefluor710) (48 h incubation): 25.4%
% Total, R10 EpCAM positive Cells (CD44FITC, EpCAMefluor710) (48 h incubation): 23.6%
% Gated, R11 (CD44FITC, EpCAMefluor710) (48 h incubation): 21.4%
% Total, R11 (CD44FITC, EpCAMefluor710) (48 h incubation): 19.9%
